How the values were obtained:
[1] = test system: IL6 mRNA; test: qPCR of TNF-inducible IL6 in HaCat cells; type: cell-based; conditions: 6 h, 10, 100 or 1,000 nM, TNF 2,500 IU/ml last 4 h
Method: qPCR was performed using the GoTaq qPCR Master Mix (Promega) according to manufacturer’s instructions. In short, a 25 µl reaction volume mix per sample was prepared containing 12.5 µl GoTaq qPCR Master Mix, 0.4 µM forward and reverse primer, and nuclease-free water. We used the Rotor-Gene Q qPCR machine of Qiagen with following PCR program: 95°C for 2 min, 40 cycli denaturation (95°C, 15 s) and annealing/extension (60°C, 30 s), and dissociation (60–95°C). […] Each sample was run in triplicate. The median value of the triplicates were taken to calculate the deltaCt-values using GAPDH as the normalization gene.
(A) QPCR assays was performed against the GR target gene GILZ/TSC22D3 in HaCat cells treated for 6 h with different concentrations 10, 100 or 1,000 nM Dex or UAMC-1217. Bar graph plot represents the relative mRNA levels of GILZ/TSC22D3 upon Dex or UAMC-1217 treatment. (B) QPCR assays was performed against the TNF-inducible inflammatory gene interleukin-6 (IL6) in HaCat cells treated for 6 h with different concentrations 10, 100, or 1,000 nM Dex or UAMC-1217 either or not, cotreated for the last 4 h with TNF (2,500 IU/ml) as indicated in panel (B). […] Significant mean differences versus control setups panel (A) or TNF treated setup panel (B) are marked as *** (P < 0.001), **(P < 0.01), * (P < 0.05) and were determined by one-way ANOVA (Dunnetts Posttest).

[2] = test system: GR Ser211 phosphorylation; test: Western blot of GR Ser211 phosphorylation; type: cell-based; conditions: for concentration dependence of GR Ser211 phosphorylation: HaCat cells, 6 h, 10, 100 or 1,000 nM
Method: Whole cell extracts contain multiple protease inhibitors (Complete Mini®, Roche) and Halt phosphatase inhibitor cocktail (Thermoscientific). Soluble protein extracts were obtained after three times freeze and thaw cycles and centrifugation at […] for 15 min at 4°C. Samples were separated by sodium dodecyl sulfate-polyacrylamidegel electrophoresis (SDS-PAGE) and transferred onto nitrocellulose membranes (Hybond C, Amersham) following standard protocols. After blocking, membranes were incubated overnight at 4°C with the primary antibodies: anti-GR (sc-8992, SantaCruz Biotechnology), anti-phospho-GR Ser211 (4161, Cell Signalling) and anti-Actin (A3853, Sigma-Aldrich) followed by dye-conjugated secondary antibodies (LI-COR® Biosciences). Bound complexes were detected with the Odyssey® infrared imaging system (LI-COR®) and quantified by Image J software.
Figure 5 Selective glucocorticoid receptor agonist GSK866 and its analogs UAMC-1217, UAMC-1218 trigger glucocorticoid receptor (GR) Ser211 phosphorylation. (A) Western detection of expression levels of Actin, GR, and GR Ser S211 phosphorylation in HaCat cells following 6 h treatment with 1 µM Dex, UAMC-1217, UAMC-1218, or GSK866. (B) Bar plot representation of Western blot intensities of Actin, GR, and GR Ser S211 phosphorylation observed in panel A, as quantified by Image J. (C) Western detection of expression levels of Actin, GR expression, and Ser S211 phosphorylation in HaCat cells following 6 h treatment with, respectively, 10, 100, or 1,000 nM Dex or UAMC-1217. (D) Bar plot representation of Western blot intensities of Actin, GR, and GR Ser S211 phosphorylation observed in panel (C), as quantified by free Image J software.

[3] = test system: GR nuclear translocation in A549 cells; test: Immunofluorescence of nuclear GR translocation in A549 cells; type: cell-based, human; conditions: serum starved A549 cells, 1 µM, 30 min
Method: To detect endogenous GR in A549 cells, cells were grown in serum free media for 24 h followed by treatment with 1 µM of specific GR ligands. After 30 min of treatment, cells on the cover glass were fixed in 4% formaldehyde in phosphate-buffered saline (PBS), permeabilized with 0.3% Triton X-100–PBS, and then blocked in 5% milk, 10% FCS, 0.3% bovine serum albumin, and 0.3% Triton X-100 in PBS for 30 min at room temperature. Primary antibodies against anti GR-antibody (SantaCruz Biotechnology) were used at a dilution of 1:200. Nuclei were stained by DAPI and samples were analyzed using a confocal Leica LSM410 microscope. To quantify nuclear translocation of GR in a standardized manner, multichannel fluorescence images were analyzed using a script for FIJI image analysis freeware (http://fiji.sc) that is essentially based on a pipeline described before (CellBlocks.ijm) ([39]), and is available upon request. In brief, the analysis first segments nuclei in the Hoechst/DAPI channel and then uses the nuclear mask to define perinuclear cytoplasmic regions of interest (ROIs). Nuclei are detected after local contrast enhancement and Gaussian smoothing to, respectively, cover for spatial illumination heterogeneity and noise. After automatic thresholding (Isodata algorithm), touching nuclei are separated using a conditional watershed algorithm ([40]). Next, cytoplasmic ROIs are determined as concentric bands around the nuclei by Voronoi-restrained region growing ([41]). Finally, the average intensity of the GR channel is measured in both the nuclear and cytoplasmic ROIs and the nuclear-to cytoplasm signal intensity ratio (N/C Ratio) is calculated per cell (Figure S1 in Supplementary Material) ([42]).
Figure 6 Selective glucocorticoid receptor agonist GSK866 analogs UAMC-1217, UAMC-1218, but not UAMC-1158 and UAMC-1159 trigger nuclear glucocorticoid receptor (GR) translocation. (A) Serum starved A549 cells were left solvent treated or treated for 30 min with 1 µM Dex, Dex-mesylate (Dex-Mes), GSK866, UAMC-1158, UAMC-1159, UAMC-1217, or UAMC-1218. GR translocation was evaluated by immunofluorescence whereas nuclei were stained by DAPI dye. Magnification is at 100×. White scalebars represent […]. (B) Automated image quantification of GR translocation of three replicate immunofluorescence images of the different experimental setups.

[4] = test system: GR; design: method as in PMID 27612544; conditions: ref [14], cited from earlier work; for % inhibition of GR ligand binding: 1.5 nM [3H]-dexamethasone, 1 µM ligand

C[C@@H]1C[C@H]2[C@@H]3CCC4=CC(=O)C=C[C@]4(C)[C@@]3(F)[C@@H](O)C[C@]2(C)[C@@]1(O)C(=O)CO [Dex, Dexamethasone, reference compound]
TNF-induced IL6 gene expression [1]: dose-dependently reverse TNF induced IL6 gene expression
concentration dependence of GR Ser211 phosphorylation [2]: concentration-dependent increase of GR Ser211 phosphorylation
nuclear GR translocation [3]: induce (partial) translocation of GR from the cytosol to the nucleus
% inhibition of GR ligand binding [4]: 100%

CCN(C[C@@](O)(CNC(=O)c1cnn(-c2ccc(F)cc2)c1N)C(F)(F)F)C(=O)c1c(Cl)ccc(NC(=O)CCl)c1Cl [UAMC-1217]
TNF-induced IL6 gene expression [1]: dose-dependently reverse TNF induced IL6 gene expression
GR Ser211 phosphorylation ([2]; 1 µM, 6 h (UAMC-1158: Figure S2, 4 or 24 h)): enhance the Ser211 phosphorylation
concentration dependence of GR Ser211 phosphorylation [2]: concentration-dependent increase of GR Ser211 phosphorylation
nuclear GR translocation [3]: induce (partial) translocation of GR from the cytosol to the nucleus
% inhibition of GR ligand binding [4]: 92%
IC50 ([4]; displacement of radiolabeled Dex, read-out: IC50 (GR radioligand binding)): 22 nM
Ki ([4]; displacement of radiolabeled Dex, read-out: Ki (GR radioligand binding)): 11 nM
